Assay results taken from article PMC8279416, “Structural Fine-Tuning of Desmuramylpeptide NOD2 Agonists Defines Their In Vivo Adjuvant Activity” (Journal of Medicinal Chemistry, 2021).

Assays:
[1] = tested on: MEC1 B-chronic lymphocytic leukemia cells; experiment: PBMC cytotoxicity assay against MEC1 cells (flow cytometry); assay type: cell-based
Description: (§1) In the present study, we examined these desmuramylpeptides in terms of potentiation of the cytotoxic activity of the PBMCs against cancer cells. To this end, we used a previously described flow-cytometry-based cytotoxicity assay where PBMCs are co-incubated with fluorescently labeled cancer cells.[89] As indicated above, the NOD2-mediated NK cell activity originates from both the direct effects of NOD2 agonists on NK cells and the indirect activation through cytokine release by other NOD2-responsive cells, including monocytes. Thus, we used the whole PBMC population as the effector cells, rather than isolated NK cells, to provide conditions that would be closer to the in vivo environment, wherein the immune responses can be reinforced by interactions between the distinct immune cell subpopulations. Two malignant cell lines were used as the target cells in a 40:1 effector to target cell ratio: MEC1 B-chronic lymphocytic leukemia cells, and K562 chronic myelogenous leukemia cells. The K562 cells are considered a “classic” NK cell target, as they lack the expression of major histocompatibility complex (MHC) class I that is required for NK cell inhibition.[90]
The PBMC cytotoxicity assays using K562 and MEC1 cells were performed as described previously, with some modifications.[89] PBMCs were seeded (4 × 10^5 cells/well) in 96-well plates and treated with compounds (0.1–10 μM) or vehicle (0.1% DMSO) for 18 h. The K562 or MEC1 cells were stained with CFSE (Invitrogen, Carlsbad, CA, U.S.A.), washed twice with complete medium, and added (1 × 10^4 cells/well) to pretreated PBMCs for a final effector cell to target tumor cell ratio of 40:1. After a 4 h co-incubation (37 °C, 5% CO2), cells were stained with Sytox blue dead cell stain (Invitrogen) and analyzed using an Attune NxT flow cytometer (Thermo Fisher Scientific, Waltham, MA, U.S.A.) and the FlowJo software (Tree Star, Inc., Ashland, OR, U.S.A.). […] Statistical significance was determined by one-way ANOVA followed with Dunnett’s multiple comparisons test.

[2] = tested on: CD4+ T cells (OT II) cocultured with BMDCs; experiment: BMDC antigen presentation assay with ovalbumin-specific CD4+ T cells; assay type: cell-based, mouse; conditions: ovalbumin 50 μg/mL, 72 h coculture
Description: (§2) To evaluate the adjuvant potential of the two most-promising desmuramylpeptides, 68 and 75, in terms of their effects on DC-mediated activation of CD4^+ and CD8^+ T cells, we used an in vitro antigen-presentation assay with C57BL/6 mouse bone-marrow-derived DCs (BMDCs). Following stimulation with 68 and 75 (1 or 10 μM) in the presence of ovalbumin soluble protein (50 μg/mL), BMDCs were cocultured with carboxyfluorescein succinimidyl ester (CFSE)-labeled naive ovalbumin-specific CD4^+ or CD8^+ T cells, which were isolated from splenocytes of OT II and OT I transgenic mice, respectively. After 3 days of coculture, CD25 (α subunit of IL-2 receptor)[108] expression was determined, along with the CFSE dilution, as markers of T-cell activation and proliferation, respectively. Furthermore, we also examined how this desmuramylpeptide-induced priming of T cells affected the secreted cytokine profiles in BMDC/T-cell cocultures.
CD4^+ and CD8^+ T cells were purified from splenocytes of OT II and OT I transgenic mice using CD4^+ and CD8^+ T cell isolation kits (Miltenyi Biotec, Germany), according to manufacturer instructions. Purified T cells were stained with CFSE (Invitrogen, Carlsbad, CA, U.S.A.) and washed. Then, 5 × 10^4 T cells were mixed with 1 × 10^4 BMDCs per well (pretreated with desmuramylpeptides [1 or 10 μM] and 50 μg/mL ovalbumin [InvivoGen, San Diego, CA, U.S.A.] for 18 h, and then washed). […] The cells were stained with Fixable viability dye eFluor 780 (eBioscience, Thermo Fisher Scientific, MA, U.S.A.), anti-Thy1.2-PE-Cy7 antibodies (Biolegend, San Diego, CA, U.S.A.), anti-CD8-eFluor450 antibodies (eBioscience), anti-CD4-eFluor450 antibodies (eBioscience), and anti-CD25-APC antibodies (Biolegend) and analyzed using a Beckman Coulter Cytoflex S flow cytometer (CA, U.S.A.) and FlowJo software (Tree Star, Inc., Ashland, OR, U.S.A.). Live Thy1.2^+/CD4^+ and Thy1.2^+/CD8^+ were evaluated for CFSE dilution and CD25 expression. […] Statistical significance was determined by one-way ANOVA followed by Dunnett’s multiple comparisons test.

[3] = tested on: K562 chronic myelogenous leukemia cells; experiment: PBMC cytotoxicity assay against K562 cells (flow cytometry); assay type: cell-based
Description: as §1
The PBMC cytotoxicity assays using K562 and MEC1 cells were performed as described previously, with some modifications.[89] PBMCs were seeded (4 × 10^5 cells/well) in 96-well plates and treated with compounds (0.1–10 μM) or vehicle (0.1% DMSO) for 18 h. The K562 or MEC1 cells were stained with CFSE (Invitrogen, Carlsbad, CA, U.S.A.), washed twice with complete medium, and added (1 × 10^4 cells/well) to pretreated PBMCs for a final effector cell to target tumor cell ratio of 40:1. After a 4 h co-incubation (37 °C, 5% CO2), cells were stained with Sytox blue dead cell stain (Invitrogen) and analyzed using an Attune NxT flow cytometer (Thermo Fisher Scientific, Waltham, MA, U.S.A.) and the FlowJo software (Tree Star, Inc., Ashland, OR, U.S.A.). Cells that were positive for both CFSE and Sytox blue were defined as dead K562 and MEC1 cells. PBMCs alone and the CFSE-labeled cancer cells alone were also treated with the compounds at the same concentrations and stained with Sytox blue to determine any direct cytotoxicity of the compounds toward the PBMCs and cancer cells. The experiments were run in duplicate and repeated as three independent biological replicates. Statistical significance was determined by one-way ANOVA followed with Dunnett’s multiple comparisons test.

[4] = tested on: BMDC/CD4+ T-cell cocultures; experiment: T cell cytokine release in BMDC/T-cell cocultures; assay type: cell-based, mouse; conditions: BMDCs pretreated with 10 μM, CD4+ T cells, 72 h
Description: as §2, with “Furthermore, we also examined how this desmuramylpeptide-induced priming of T cells affected the secreted cytokine profiles in BMDC/T-cell cocultures.” left out
Supernatants from CD4^+ and CD8^+ T cells after 72 h of co-incubation with BMDCs (pretreated with desmuramylpeptides [10 μM] and washed) were collected as described above. The cytokine concentrations were determined with the Cytometric Bead Array Mouse Th1/Th2/Th17 Cytokine Kit (contents: IL-2, IL-4, IL-6, IFN-γ, TNF, IL-17A, IL-10; BD Bioscience) on an Attune NxT flow cytometer (Thermo Fisher Scientific, Waltham, MA, U.S.A.). […] The data were analyzed using the FlowJo (Tree Star, Inc., Ashland, OR, U.S.A.) and Prism (GraphPad, San Diego, CA, U.S.A.) software. […]

[5] = 10 μM, 18 h pretreatment, 4 h co-incubation, 40:1
[6] = 10 μM, CD25 expression and CFSE dilution

CCCCCCCCCCCCCCCCCC(=O)Oc1ccc(/C=C/C(=O)NCC(=O)N[C@H](C(=O)N[C@H](CCC(=O)OCC)C(=O)OCC)C(C)C)cc1OC [Compound 75, Diethyl ((E)-3-(3-Methoxy-4-(stearoyloxy)phenyl)acryloyl)glycyl-L-valyl-D-glutamate]
Boost to the cytotoxicity of PBMCs against MEC1 cells ([1]; 100 nM): no effects were seen against either cell line
Boost to the cytotoxicity of PBMCs against MEC1 cells [1, 5]: significant boost
BMDC-mediated CD4+ T-cell activation and proliferation [2, 6]: significantly enhanced
Boost to the cytotoxicity of PBMCs against K562 cells ([3]; 100 nM): no effects were seen against either cell line
Boost to the cytotoxicity of PBMCs against K562 cells ([3]; 1 μM): still significant
Boost to the cytotoxicity of PBMCs against K562 cells [3, 5]: significant boost

CCCCCCCCCCCCCCCCCC(=O)Oc1ccc(/C=C/C(=O)NCC(=O)N[C@H](C(=O)N[C@H](CCC(=O)OCC)C(=O)OCC)[C@@H](C)O)cc1OC [Compound 81, Diethyl ((E)-3-(3-Methoxy-4-(stearoyloxy)phenyl)acryloyl)glycyl-L-threonyl-D-glutamate]
Boost to the cytotoxicity of PBMCs against MEC1 cells [1, 5]: devoid of activity
Boost to the cytotoxicity of PBMCs against K562 cells [3, 5]: devoid of activity

COc1cc(/C=C/C(=O)NCC(=O)N[C@H](C(=O)N[C@H](CCC(=O)OC2CCCC2)C(=O)OC2CCCC2)C(C)C)ccc1O [Compound 68, Dicyclopentyl ((E)-3-(4-Hydroxy-3-methoxyphenyl)acryloyl)glycyl-L-valyl-D-glutamate]
BMDC-mediated CD4+ T-cell activation and proliferation ([2]; 1 μM): also showed this effect
BMDC-mediated CD4+ T-cell activation and proliferation [2, 6]: significantly enhanced
Levels of IL-2, IL-6, IFN-γ, TNF-α and IL-17A in coculture supernatants [4]: elevated levels
Levels of Th2-associated IL-4 and IL-10 in coculture supernatants [4]: unaffected levels
